In patent US20190322676A1, “CERAMIDE GALACTOSYLTRANSFERASE INHIBITORS FOR THE TREATMENT OF DISEASE” (BioMarin Pharmaceutical Inc., priority 2016, published 2019):
Structures can show the parent of a compound that is named as a salt.

molecular target: T1, human CGT (ceramide galactosyltransferase), CHO/CGT lysate (Homo sapiens, UniProt Q16880); assay: CGT enzyme assay, RapidFire/MS/MS readout (Table 1 ranges with one asterisk *); format: biochemical; settings: RapidFire method (range with one asterisk *)
T1 construct: Full-length human CGT cDNA was cloned into the BamH1/Xho1 site of pcDNA3.1 (+); expressed in transfected cells; host or cells: Chinese hamster ovary (CHO) cells; lysate prepared with M-PER
T1 sequence (Q16880 21-541): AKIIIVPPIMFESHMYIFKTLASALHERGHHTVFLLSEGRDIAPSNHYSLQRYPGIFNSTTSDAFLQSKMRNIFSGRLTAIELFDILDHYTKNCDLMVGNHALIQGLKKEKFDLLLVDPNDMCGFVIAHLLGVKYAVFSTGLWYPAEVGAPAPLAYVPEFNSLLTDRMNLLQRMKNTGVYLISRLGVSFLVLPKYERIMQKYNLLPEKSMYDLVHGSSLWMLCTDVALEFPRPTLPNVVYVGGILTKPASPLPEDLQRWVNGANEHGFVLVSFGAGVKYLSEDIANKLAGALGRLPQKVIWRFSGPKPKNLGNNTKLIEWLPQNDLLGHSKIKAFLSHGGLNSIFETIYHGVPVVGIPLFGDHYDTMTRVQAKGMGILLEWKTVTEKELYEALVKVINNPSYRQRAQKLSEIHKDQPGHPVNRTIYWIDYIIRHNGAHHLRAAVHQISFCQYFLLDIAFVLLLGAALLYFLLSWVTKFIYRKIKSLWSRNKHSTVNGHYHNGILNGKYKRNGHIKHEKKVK
Procedure, shortened: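 Lysate (4 μg) of CHO cells transfected with full-length human CGT incubated 1 h at 37 °C with compound (0.001–50 μM) in pH 7.2 HEPES buffer with 10 μM C6-NBD-dihydro-ceramide, 17.5 μM UDP-galactose, Mg2+/Mn2+, CHAPS, BSA, 0.5% DMSO; ** set also contained 0.01% Tween 80. Product quantified by RapidFire/MS/MS, normalized to internal standard; IC50 from sigmoidal variable-slope fits.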

SMILES	IC50
NC1CC2CCC(C1)N2C(=O)[C@@H](NS(=O)(=O)c1ccc(OCC2CCCCC2)cc1)C(F)(F)c1cccc(Oc2ccccc2)c1 (stereo partly drawn) [Compound 113-1, N-((2R)-3-(3-amino-8-azabicyclo[3.2.1]octan-8-yl)-1,1-difluoro-3-oxo-1-(3-phenoxyphenyl)propan-2-yl)-4-(cyclohexylmethoxy)benzenesulfonamide trifluoroacetate]	< 1 µM
NC1CC2CCC(C1)N2C(=O)[C@@H](NC(=O)[C@H](O)c1ccc2cc(OC3CCCC3)ccc2c1)C(F)(F)c1ccc(-c2ccc(Cl)cc2)cc1 (stereo partly drawn) [Compound 136-1, (2R)—N-((2R)-3-(3-amino-8-azabicyclo[3.2.1]octan-8-yl)-1-(4′-chloro-[1,1′-biphenyl]-4-yl)-1,1-difluoro-3-oxopropan-2-yl)-2-(6-(cyclopentyloxy)naphthalen-2-yl)-2-hydroxyacetamide trifluoroacetate]	1 to 10 µM
CN([C@H](C(=O)N1C2CCC1CC(N)C2)C(F)(F)c1ccc(OCCN2CCCCC2)cc1)S(=O)(=O)c1ccc2cc(OC3CCCC3)ccc2c1 (stereo partly drawn) [Compound 116-1, N-((2R)-3-(3-amino-8-azabicyclo[3.2.1]octan-8-yl)-1,1-difluoro-3-oxo-1-(4-(2-(piperidin-1-yl)ethoxy)phenyl)propan-2-yl)-6-(cyclopentyloxy)-N-methylnaphthalene-2-sulfonamide]	30 to 100 µM
CCCCOc1ccc(C(F)(F)[C@H](NS(=O)(=O)c2ccc(OCC3CCCCC3)cc2)C(=O)N2CCC(N)CC2)cc1 [Compound 81-1, (R)—N-(3-(4-aminopiperidin-1-yl)-1-(4-butoxyphenyl)-1,1-difluoro-3-oxopropan-2-yl)-4-(cyclohexylmethoxy)benzenesulfonamide trifluoroacetate]	1 to 10 µM
CCCCOc1ccc(C(F)(F)[C@H](C(=O)N2CCC(N)CC2)N(C)S(=O)(=O)c2ccc(OCC3CCCCC3)cc2)cc1 [Compound 58-2, (S)—N-(3-(4-aminopiperidin-1-yl)-1-(4-butoxyphenyl)-1,1-difluoro-3-oxopropan-2-yl)-4-(cyclohexylmethoxy)-N-methylbenzenesulfonamide]	10 to 30 µM
COc1cc(C(F)(F)[C@@H](NS(=O)(=O)c2ccc3cc(OC4CCCC4)ccc3c2)C(=O)N2C3CCC2CC(N)C3)ccc1-c1ccc(Cl)cc1 (stereo partly drawn) [Compound 135-2, N-((2S)-3-(3-amino-8-azabicyclo[3.2.1]octan-8-yl)-1-(4′-chloro-2-methoxy-[1,1′-biphenyl]-4-yl)-1,1-difluoro-3-oxopropan-2-yl)-6-(cyclopentyloxy)naphthalene-2-sulfonamide trifluoroacetate]	1 to 10 µM
O=C([C@H](NS(=O)(=O)c1ccc2cc(OC3CCCC3)ccc2c1)C(F)(F)c1ccc(-c2ccc(Cl)cc2)cc1)N1CCNCC1 [Compound 137-2, (S)—N-(1-(4′-chloro-[1,1′-biphenyl]-4-yl)-1,1-difluoro-3-oxo-3-(piperazin-1-yl)propan-2-yl)-6-(cyclopentyloxy)naphthalene-2-sulfonamide trifluoroacetate]	10 to 30 µM
CN([C@H](C(=O)N1C2CCC1CC(N)C2)C(F)(F)c1ccc(Br)cc1)S(=O)(=O)c1ccc2cc(OC3CCCC3)ccc2c1 (stereo partly drawn) [Compound 34-1, N-((2R)-3-(3-amino-8-azabicyclo[3.2.1]octan-8-yl)-1-(4-bromophenyl)-1,1-difluoro-3-oxopropan-2-yl)-6-(cyclopentyloxy)-N-methylnaphthalene-2-sulfonamide trifluoroacetate]	< 1 µM
NC1CCN(C(=O)[C@H](NS(=O)(=O)c2ccc(OCC3CCCCC3)cc2)C(F)(F)c2ccc(OC3CCCCC3)cc2)CC1 [Compound 103-2, (S)—N-(3-(4-aminopiperidin-1-yl)-1-(4-(cyclohexyloxy)phenyl)-1,1-difluoro-3-oxopropan-2-yl)-4-(cyclohexylmethoxy)benzenesulfonamide]	30 to 100 µM
NC1CCN(C(=O)[C@@H](NC(=O)[C@@H](O)c2ccc(OCC3CCCCC3)cc2)C(F)(F)c2ccc(-c3ccc(Cl)cc3)cc2)CC1 [Compound 141-3, (S)—N—((R)-3-(4-aminopiperidin-1-yl)-1-(4′-chloro-[1,1′-biphenyl]-4-yl)-1,1-difluoro-3-oxopropan-2-yl)-2-(4-(cyclohexylmethoxy)phenyl)-2-hydroxyacetamide trifluoroacetate]	1 to 10 µM
CCCCOc1ccc(C(F)(F)[C@@H](C(=O)N2CCC(N)CC2)N(C)S(=O)(=O)c2ccc(OCC3CCCCC3)cc2)cc1 [Compound 58-1, (R)—N-(3-(4-aminopiperidin-1-yl)-1-(4-butoxyphenyl)-1,1-difluoro-3-oxopropan-2-yl)-4-(cyclohexylmethoxy)-N-methylbenzenesulfonamide]	1 to 10 µM
CN([C@H](C(=O)N1CCC(N)CC1)C(F)(F)c1ccc(Br)cc1)S(=O)(=O)c1ccc2cc(OC3CCCC3)ccc2c1 [Compound 44-1, (R)—N-(3-(4-aminopiperidin-1-yl)-1-(4-bromophenyl)-1,1-difluoro-3-oxopropan-2-yl)-6-(cyclopentyloxy)-N-methylnaphthalene-2-sulfonamide]	< 1 µM
NCC1CCN(C(=O)[C@H](NS(=O)(=O)c2ccc3cc(OC4CCCC4)ccc3c2)C(F)(F)c2ccc(Br)cc2)CC1 [Compound 57-2, (S)—N-(3-(4-(aminomethyl)piperidin-1-yl)-1-(4-bromophenyl)-1,1-difluoro-3-oxopropan-2-yl)-6-(cyclopentyloxy)naphthalene-2-sulfonamide trifluoroacetate]	10 to 30 µM
CN([C@@H](C(=O)N1C2CCC1CC(N)C2)C(F)(F)c1ccc(Oc2ccccc2)cc1)S(=O)(=O)c1ccc2cc(OC3CCCC3)ccc2c1 (stereo partly drawn) [Compound 87-2, N-((2S)-3-(3-amino-8-azabicyclo[3.2.1]octan-8-yl)-1,1-difluoro-3-oxo-1-(4-phenoxyphenyl)propan-2-yl)-6-(cyclopentyloxy)-N-methylnaphthalene-2-sulfonamide trifluoroacetate]	1 to 10 µM
NC1CC2CCC(C1)N2C(=O)[C@@H](NS(=O)(=O)c1ccc2cc(OC3CCCC3)ccc2c1)C(F)(F)c1ccc(Cl)cc1 (stereo partly drawn) [Compound 28-1, N-((2R)-3-(3-amino-8-azabicyclo[3.2.1]octan-8-yl)-1-(4-chlorophenyl)-1,1-difluoro-3-oxopropan-2-yl)-6-(cyclopentyloxy)naphthalene-2-sulfonamide trifluoroacetate]	< 1 µM
CN([C@H](C(=O)N1C2CCC1CC(N)C2)C(F)(F)c1ccc(Oc2ccccc2)cc1)S(=O)(=O)c1ccc2cc(OC3CCCC3)ccc2c1 (stereo partly drawn) [Compound 87-1, N-((2R)-3-(3-amino-8-azabicyclo[3.2.1]octan-8-yl)-1,1-difluoro-3-oxo-1-(4-phenoxyphenyl)propan-2-yl)-6-(cyclopentyloxy)-N-methylnaphthalene-2-sulfonamide trifluoroacetate]	< 1 µM
NC1CC2CCC(C1)N2C(=O)[C@H](NS(=O)(=O)c1ccc2cc(OC3CCCC3)ccc2c1)C(F)(F)c1cccc(Br)c1 (stereo partly drawn) [Compound 65-2, N-((2S)-3-(3-amino-8-azabicyclo[3.2.1]octan-8-yl)-1-(3-bromophenyl)-1,1-difluoro-3-oxopropan-2-yl)-6-(cyclopentyloxy)naphthalene-2-sulfonamide]	10 to 30 µM
NC1CCN(C(=O)[C@H](NS(=O)(=O)c2ccc3cc(OC4CCCC4)ccc3c2)C(F)(F)c2ccc(Br)cc2)CC1 [Compound 32-2, (S)—N-(3-(4-aminopiperidin-1-yl)-1-(4-bromophenyl)-1,1-difluoro-3-oxopropan-2-yl)-6-(cyclopentyloxy)naphthalene-2-sulfonamide trifluoroacetate]	10 to 30 µM
